Results on 1 molecule are retold here after ChEMBL document CHEMBL1154751, “Evaluation of di-sansalvamide A derivatives: synthesis, structure-activity relationship, and mechanism of action” (J Med Chem, 2009).

The structures appear in SMILES notation.

The IC50 is the concentration that inhibits the measured activity by half. High values mean a need for much substance, low ones inhibition by little substance.

For experiment [1], the system named is HCT-116. Description: Growth inhibition of human HCT116 cells at 10 nM after 24 hrs by [3H]thymidine uptake assay. The settings on record: read-out: GI. The format is functional.
The nature of experiment [2]: Growth inhibition of human WS1 cells after 24 hrs by [3H]thymidine uptake assay. The format is functional, cell-based.
A short description of experiment [3]: Growth inhibition of human PL45 cells at 500 nM after 24 hrs by [3H]thymidine uptake assay. The format is functional. The settings on record: read-out: GI.
Experiment [4] can be described thus: Growth inhibition of human PL45 cells at 125 nM after 24 hrs by [3H]thymidine uptake assay. The format is functional. The note with it: read-out: GI.
Experiment [5] can be described thus: Growth inhibition of human WS1 cells at 1 nM after 24 hrs by [3H]thymidine uptake assay. The format is functional. The settings on record: read-out: GI.
A short description of experiment [6]: Growth inhibition of human WS1 cells at 250 nM after 24 hrs by [3H]thymidine uptake assay. The format is functional. The note with it: read-out: GI.
The subject of experiment [7] is HCT-116. Put plainly: Growth inhibition of human HCT116 cells after 24 hrs by [3H]thymidine uptake assay. The format is functional, cell-based.
Experiment [8] is described as follows: Growth inhibition of human WS1 cells at 125 nM after 24 hrs by [3H]thymidine uptake assay. The format is functional. The settings on record: read-out: GI.
The nature of experiment [9]: Growth inhibition of human PL45 cells at 250 nM after 24 hrs by [3H]thymidine uptake assay. The format is functional. The settings on record: read-out: GI.
The test system of experiment [10] is HCT-116. Put plainly: Growth inhibition of human HCT116 cells at 20 nM after 24 hrs by [3H]thymidine uptake assay. The format is functional. The settings on record: read-out: GI.
Experiment [11] is described as follows: Growth inhibition of human PL45 cells at 62.5 nM after 24 hrs by [3H]thymidine uptake assay. The format is functional. The settings on record: read-out: GI.
The nature of experiment [12]: Growth inhibition of human WS1 cells at 1000 nM after 24 hrs by [3H]thymidine uptake assay. The note with it: read-out: GI. The format is functional.
Experiment [13] is described as follows: Growth inhibition of human PL45 cells after 24 hrs by [3H]thymidine uptake assay. The format is functional, cell-based.
Experiment [14] can be described thus: Growth inhibition of human PL45 cells at 1000 nM after 24 hrs by [3H]thymidine uptake assay. The format is functional. The settings on record: read-out: GI.
The nature of experiment [15]: Growth inhibition of human WS1 cells at 62.5 nM after 24 hrs by [3H]thymidine uptake assay. The format is functional. The note with it: read-out: GI.
The nature of experiment [16]: Growth inhibition of human WS1 cells at 500 nM after 24 hrs by [3H]thymidine uptake assay. The format is functional. The settings on record: read-out: GI.
The test system of experiment [17] is HCT-116. Put plainly: Growth inhibition of human HCT116 cells at 100 nM after 24 hrs by [3H]thymidine uptake assay. The format is functional. The settings on record: read-out: GI.
Experiment [18] deals with HCT-116. Description: Growth inhibition of human HCT116 cells at 200 nM after 24 hrs by [3H]thymidine uptake assay. The format is functional. The note with it: read-out: GI.
Experiment [19] concerns HCT-116. Put plainly: Growth inhibition of human HCT116 cells at 50 nM after 24 hrs by [3H]thymidine uptake assay. The format is functional. The note with it: read-out: GI.
Experiment [20] in a line: Growth inhibition of human PL45 cells at 1 nM after 24 hrs by [3H]thymidine uptake assay. The format is functional. The settings on record: read-out: GI.

Regarding `C=CCNC1=C2C[C@@H](C)C[C@H](OC)[C@H](O)[C@@H](C)/C=C(\C)[C@H](OC(N)=O)[C@@H](OC)/C=C\C=C(/C)C(=O)NC(=CC1=O)C2=O` [TANESPIMYCIN], in the experiment on HCT-116 [1], the inhibition of growth at 0.01 µM turned out to be 0%. Further, the 50% inhibitory concentration (IC50) in [2] was 31.8 nM; with HCT-116 [7] it was 56.5 nM; in [13], 7.7 nM. Besides, the inhibition of growth at 0.5 µM was 99% in [3] and 76.3% in [16]. Moreover, the inhibition of growth at 0.125 µM in [4] was 99%; in [8] it was 73.2%. Further, the inhibition of growth at 0.001 µM in experiment [5] was 18%; in [20] it was 11.4%. The inhibition of growth at 0.25 µM in [6] worked out at 66%; in experiment [9], 99%. In the experiment with HCT-116 [10], the inhibition of growth at 0.02 µM is 12%. The values for the inhibition of growth at 0.0625 µM in experiment [11] and in experiment [15] were 98% and 51.7%, respectively. For the same molecule, the inhibition of growth at 1 µM amounted to 77.8% in experiment [12] and 99% in experiment [14]. The inhibition of growth at 0.1 µM in the experiment on HCT-116 [17] turned out to be 72%. Moreover, the inhibition of growth at 0.2 µM in the experiment with HCT-116 [18] was 79%. For the same molecule, in the experiment on HCT-116 [19], the inhibition of growth at 0.05 µM was determined as 54%.
